Reference: ChEMBL document CHEMBL2073821, “Immunohistochemical and functional characterization of pH-dependent intestinal absorption of weak organic acids by the monocarboxylic acid transporter MCT1” (J Pharm Pharmacol, 1999)
Blank lines part the entries; values can stand above or below the molecule they belong to. Square brackets hold non-standard residues; d marks the D form. Peptide text beside a SMILES is read from it. Sar = CNCC(=O)O

Experiments:
Format in all cases: functional, cell-based
Settings in all cases: MDA-MB-231
[1] = target: T1, Monocarboxylate transporter 1 (Rattus norvegicus) (UniProt P53987); assay: TP_TRANSPORTER: uptake of P-Aminohippuric acid at a concentration of 9uM in MCT1-expressing MDA-MB231 cells
T1 sequence (whole entry): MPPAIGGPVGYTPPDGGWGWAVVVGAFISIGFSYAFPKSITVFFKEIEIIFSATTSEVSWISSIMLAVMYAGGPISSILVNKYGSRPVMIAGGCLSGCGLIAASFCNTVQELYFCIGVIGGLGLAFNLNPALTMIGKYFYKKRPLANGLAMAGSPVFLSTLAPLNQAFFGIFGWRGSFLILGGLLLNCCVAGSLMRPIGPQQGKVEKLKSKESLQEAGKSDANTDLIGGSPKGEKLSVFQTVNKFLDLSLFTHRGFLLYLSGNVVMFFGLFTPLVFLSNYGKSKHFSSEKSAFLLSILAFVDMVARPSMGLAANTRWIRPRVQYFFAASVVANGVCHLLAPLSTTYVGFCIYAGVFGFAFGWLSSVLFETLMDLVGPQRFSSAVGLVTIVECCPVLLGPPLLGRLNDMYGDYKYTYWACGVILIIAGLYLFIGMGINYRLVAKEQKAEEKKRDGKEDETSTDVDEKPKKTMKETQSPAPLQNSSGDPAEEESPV

[2] = target: T1, Monocarboxylate transporter 1 (Rattus norvegicus); assay: TP_TRANSPORTER: uptake of Butyric acid at a concentration of 137uM in MCT1-expressing MDA-MB231 cells
[3] = target: T1, Monocarboxylate transporter 1 (Rattus norvegicus); assay: TP_TRANSPORTER: uptake of Faropenem at a concentration of 76uM in MCT1-expressing MDA-MB231 cells
[4] = target: T1, Monocarboxylate transporter 1 (Rattus norvegicus); assay: TP_TRANSPORTER: uptake of Glycylsarcosine at a concentration of 17uM in MCT1-expressing MDA-MB231 cells
[5] = target: T1, Monocarboxylate transporter 1 (Rattus norvegicus); assay: TP_TRANSPORTER: uptake of D-Lactic Acid at a concentration of 3uM in MCT1-expressing MDA-MB231 cells
[6] = target: T1, Monocarboxylate transporter 1 (Rattus norvegicus); assay: TP_TRANSPORTER: uptake of Foscarnet at a concentration of 3uM in MCT1-expressing MDA-MB231 cells
[7] = target: T1, Monocarboxylate transporter 1 (Rattus norvegicus); assay: TP_TRANSPORTER: uptake of Mevalonic acid at a concentration of 67uM in MCT1-expressing MDA-MB231 cells
[8] = target: T1, Monocarboxylate transporter 1 (Rattus norvegicus); assay: TP_TRANSPORTER: uptake of Glutamic acid at a concentration of 0.01uM in MCT1-expressing MDA-MB231 cells
[9] = target: T1, Monocarboxylate transporter 1 (Rattus norvegicus); assay: TP_TRANSPORTER: uptake of Propionic acid at a concentration of 7uM in MCT1-expressing MDA-MB231 cells
[10] = target: T1, Monocarboxylate transporter 1 (Rattus norvegicus); assay: TP_TRANSPORTER: uptake of Valproic acid at a concentration of 19uM in MCT1-expressing MDA-MB231 cells
[11] = target: T1, Monocarboxylate transporter 1 (Rattus norvegicus); assay: TP_TRANSPORTER: uptake of Methotrexate at a concentration of 0.03uM in MCT1-expressing MDA-MB231 cells

SMILES: Nc1ccc(C(=O)NCC(=O)O)cc1
Activity [1]: is not a substrate [-]

SMILES: C[C@@H](O)[C@H]1C(=O)N2C(C(=O)O)=C([C@H]3CCCO3)S[C@H]12
Activity [3]: is not a substrate [-]

SMILES: O=C(O)P(=O)(O)O
Activity [6]: substrate [+]

SMILES: CCCC(CCC)C(=O)O
Activity [10]: is not a substrate [-]

SMILES: CN(Cc1cnc2nc(N)nc(N)c2n1)c1ccc(C(=O)N[C@@H](CCC(=O)O)C(=O)O)cc1
Activity [11]: is not a substrate [-]

Further lines, results first:

Activity [2]: substrate [+]
SMILES: CCCC(=O)O

Activity [4]: is not a substrate [-]
SMILES: CN(CC(=O)O)C(=O)CN (H-Gly-[Sar]-OH)

Activity [5]: substrate [+]
SMILES: C[C@@H](O)C(=O)O

Activity [7]: is not a substrate [-]
SMILES: C[C@@](O)(CCO)CC(=O)O

Activity [8]: is not a substrate [-]
SMILES: N[C@@H](CCC(=O)O)C(=O)O

Activity [9]: substrate [+]
SMILES: CCC(=O)O
